Reference: US20240425515A1, “COMPOUND OF THE 7A,8,9,10,11,11A-HEXAHYDRO-1H,7H-PYRANO[2,3-C]XANTHENE TYPE, METHOD OF PREPARATION THEREOF, INTERMEDIATES THEREOF AND THERAPEUTIC APPLICATIONS THEREOF” (CENTRE NATIONAL DE LA RECHERCHE SCIENTIFIQUE, priority 2021, published 2024)

Tests used:
[1] = target: ORD domain (OSBP-Related Domain) of the protein OSBP (Homo sapiens (Human), UniProt P22059); assay: Inhibition of DHE transport between liposomes catalyzed by the purified ORD domain of OSBP (FRET, robotized assay); type: biochemical; details: purified ORD domain 200 nM, liposomes 130 μM, 37° C., compound 50 nM to 3 μM, triplicate; read-out: Affinity for the target OSBP (Ki)
Sequence of ORD domain (OSBP-Related Domain) of the protein OSBP (P22059 401-807): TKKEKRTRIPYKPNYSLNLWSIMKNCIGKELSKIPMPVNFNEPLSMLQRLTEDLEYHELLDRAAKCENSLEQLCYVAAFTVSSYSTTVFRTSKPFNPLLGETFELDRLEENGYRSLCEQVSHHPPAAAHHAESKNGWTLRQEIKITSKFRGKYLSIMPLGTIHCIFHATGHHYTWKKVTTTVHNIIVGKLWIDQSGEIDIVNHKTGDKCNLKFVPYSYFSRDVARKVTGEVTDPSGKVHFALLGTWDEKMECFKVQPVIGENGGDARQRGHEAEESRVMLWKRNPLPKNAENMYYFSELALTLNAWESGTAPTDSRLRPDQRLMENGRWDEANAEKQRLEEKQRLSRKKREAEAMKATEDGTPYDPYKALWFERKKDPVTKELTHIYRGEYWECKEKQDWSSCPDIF
Experimental: Measurement of the inhibitory activity on OSBP is carried out by a robotized assay in the ORD domain (OSBP-Related Domain, in English) purified of the protein OSBP. The measurements are carried out according to a protocol using two preparations of liposomes: • The donor liposomes (A) contain a fluorescent sterol (DHE (dehydroergosterol)); • The acceptor liposomes (B) contain a fluorescent lipid (dansyl PE (1,2-dioleoyl-sn-glycero-3-phosphoethanolamine-N-(5-dimethylamino-1-naphthalenesulfonyl) (ammonium salt)) whose excitation spectrum covers the emission spectrum of DHE.
Transport of DHE from liposomes A to liposomes B catalyzed by the ORD domain is accompanied by a FRET signal between DHE and Dansyl-PE. Based on this signal, the kinetics of transport can be measured in real time. This measurement of fluorescence is carried out on a microplate in a TECAN Infinite 1000 Pro instrument (temperature=37° C.). At the beginning, each measurement well contains liposomes B (130 μM), ORD domain (200 nM) and the test compound. At time t=5 min, liposomes A (130 μM) are added to start the exchange reaction. Each compound is tested in triplicate for final concentrations from 50 nM to 3 μM. The time constant (k) obtained for the kinetics in each case is then represented as a function of the concentration of the analog. From this representation, an inhibition constant is determined for each compound. The affinity constants Ki are classified as follows: • Very strong affinity Ki<10 nM • Good affinity Ki from 10 to 100 nM • Low affinity Ki from 100 to 2000 nM
The compounds, other than the prodrugs, having a Ki<100 nM are regarded as active on OSBP.

[2] = test system: human glioblastoma cells U87-MG; assay: Cytotoxicity on U87-MG, CellTiter Glo viability after 72 h; type: cell-based; details: U-87 MG
Experimental: (§1) The lines U87-MG and A549 were obtained from the American Type Culture Collection (Rockville, MD, USA) and were cultured according to the supplier's instructions. The human glioblastoma cells U87-MG were cultured in Dulbecco […] (DMEM) containing 10% of FCS and 1% of L-glutamine. The lung cancer cells A549 were cultured in RPMI1640 medium containing 10% of FCS and 1% of L-glutamine. The cell lines were maintained at 37° C. in a humidified atmosphere containing 5% CO2. The products were tested at 10 concentrations in triplicate and the cellular viability was evaluated after 72 h of treatment using the CellTiter Glo assay (Promega), which allows the number of live cells to be measured by luminescence (quantification of ATP).
(§2) Thus, the cells were seeded in 96-well plates (2.5×10^3 cells/well) each containing 90 μL of growth medium. After culture for 24 hours, the wells were supplemented with 10 μL of medium containing ten decreasing concentrations of the test compound dissolved in DMSO (less than 0.1% in each preparation). After incubation for 72 h, 100 μL of Cell Titer GLo reagent was added in the space of 15 min before quantifying the luminescence emitted using a microplate reader. The dose-response curve was analyzed using Graph Prism software and the activity of the molecules is expressed in the form of IC50.

lung cancer cells A549 = assay: Cytotoxicity on A549, CellTiter Glo viability after 72 h; type: cell-based; details: Homo sapiens, A549, 72 h
Experimental: as §1, §2

[3] = Metabolic stability in mouse hepatic microsomes (LC-MS/MS); type: in vitro ADME; details: mouse microsomes 0.5 mg/mL, 2.5 μM, NADPH
Experimental: (§3) The compounds are placed in mouse plasma and mouse microsomes, and their stability is evaluated by monitoring by UPLC-MS/MS.
(§4) For plasma stability, the concentration tested is 2.5 μM and the incubation volume is 50 μL. The incubation times are 0, 15, 30, 45, 60 and 120 minutes. Protein precipitation is then performed on the samples, and then the latter are analyzed by UPLC-MS/MS. The percentage of the compound remaining as well as its elimination half-life are thus obtained. For the metabolic stability in microsomes, the concentration of test compound is 2.5 μM, and the incubation volume is 400 μL. The concentration of mouse microsomes is 0.5 mg/mL. The incubation times are 0, 15, 30 and 45 minutes. The cofactor used is NADPH. Two negative controls are carried out, one without microsomes and without cofactor at 0 and 45 minutes, and one without cofactor and with microsome at 0 and 45 minutes. A positive control is carried out in the presence of diphenhydramine. The samples are analyzed by LC-MS/MS. The intrinsic clearance and the half-life are thus obtained.
(§5) LC-MS/MS is carried out on a UPLC Acquity™ coupled to a XEVO TQ-S(WATERS).
(§6) Liquid chromatography is carried out on an Acquity UPLC column BEH 1.7 μm, 2.1×50 mm with a gradient of 4 minutes water+0.1% […]/acetonitrile 95:5 to 100:0. The column temperature is +50° C. and the temperature of the injector is +4° C. Acquisition in mass spectrometry is performed by MRM (Multiple Reaction Monitoring), with positive electrospray ionization.

[4] = Stability in mouse plasma (UPLC-MS/MS); type: in vitro ADME; details: 2.5 μM
Experimental: as §3, §4, §5, §6

Row | SMILES | Ki [1] [µM] | IC50 [2] [µM] | IC50 (lung cancer cells A549) [µM] | clearance in microsomal medium (intrinsic clearance) [3] | metabolic stability in mouse microsomes [3] [%] | metabolic stability in mouse plasma at 120 minutes (percentage of compound remaining) [4] [%]
1 | COCOc1cc2oc(-c3ccccc3)cc(=O)c2c2c1C[C@@H]1C(C)(C)[C@H](O)CC[C@@]1(C)O2 (racemic) [Compound 1, (7aR*9R*,11aR*)-9-hydroxy-6-(methoxymethoxy)-8,8,11a-trimethyl-3-phenyl-7a,8,9,10,11,11a-hexahydro-1H,7H-pyrano[2,3-c]xanthen-1-one] | < 0.01 | 0.54 | 5.08 |  |  | 
2 | COCOc1cc2oc(-c3ccccc3)cc(=O)c2c2c1C[C@@H]1C(C)(C)[C@H](OCOC)CC[C@@]1(C)O2 (racemic) [Compound 2, (7aR*,9R*,11aR*)-6,9-bis(methoxymethoxy)-8,8,11a-trimethyl-3-phenyl-7a,8,9,10,11,11a-hexahydro-1H,7H-pyrano[2,3-c]xanthen-1-one] | 0.1 to 2 | > 10 | > 10 |  |  | 
3 | CC1(C)[C@H](O)CC[C@@]2(C)Oc3c(c(O)cc4oc(-c5ccccc5)cc(=O)c34)C[C@H]12 (racemic) [Compound 3, (7aR*,9R*,11aR*)-6,9-dihydroxy-8,8,11a-trimethyl-3-phenyl-7a,8,9,10,11,11a-hexahydro-1H,7H-pyrano[2,3-c]xanthen-1-one] | < 0.01 | 0.34 | 3.4 | 152 μL/min/mg of protein | 88 | 99
4 | COCOc1cc2oc(-c3ccccc3)cc(=O)c2c2c1C[C@@H]1C(C)(C)[C@H](O)CC[C@@]1(C)O2 [Compound 4, (7aR,9R,11aR)-9-hydroxy-6-(methoxymethoxy)-8,8,11a-trimethyl-3-phenyl-7a,8,9,10,11,11a-hexahydro-1H,7H-pyrano[2,3-c]xanthen-1-one] | 0.01 to 0.1 | 0.44 |  |  |  | 
5 | CC1(C)[C@H](O)CC[C@@]2(C)Oc3c(c(O)cc4oc(-c5ccccc5)cc(=O)c34)C[C@H]12 [Compound 5, (7aR,9R,11aR)-6,9-dihydroxy-8,8,11a-trimethyl-3-phenyl-7a,8,9,10,11,11a-hexahydro-1H,7H-pyrano[2,3-c]xanthen-1-one] | < 0.01 | 0.28 | 1.38 |  |  | 
6 | COCOc1cc2oc(-c3ccccc3)cc(=O)c2c2c1C[C@H]1C(C)(C)[C@@H](O)CC[C@]1(C)O2 [Compound 6, (7aS,9S,11aS)-9-hydroxy-6-(methoxymethoxy)-8,8,11a-trimethyl-3-phenyl-7a,8,9,10,11,11a-hexahydro-1H,7H-pyrano[2,3-c]xanthen-1-one] | 0.1 to 2 | 4.31 | > 10 |  |  | 
7 | CC1(C)[C@@H](O)CC[C@]2(C)Oc3c(c(O)cc4oc(-c5ccccc5)cc(=O)c34)C[C@@H]12 [Compound 7, (7aS,9S,11aS)-6,9-dihydroxy-8,8,11a-trimethyl-3-phenyl-7a,8,9,10,11,11a-hexahydro-1H,7H-pyrano[2,3-c]xanthen-1-one] | < 0.01 | 1.89 |  |  |  | 
8 | COCOc1ccc(-c2cc(=O)c3c4c(c(OCOC)cc3o2)C[C@@H]2C(C)(C)[C@H](O)CC[C@@]2(C)O4)cc1 [Compound 8, (7aR,9R,11aR)-9-hydroxy-6-(methoxymethoxy)-3-(4-(methoxymethoxy)phenyl)-8,8,11a-trimethyl-7a,8,9,10,11,11a-hexahydro-1H,7H-pyrano[2,3-c]xanthen-1-one] | 0.01 to 0.1 | 0.16 |  |  |  | 
9 | CC1(C)[C@H](O)CC[C@@]2(C)Oc3c(c(O)cc4oc(-c5ccc(O)cc5)cc(=O)c34)C[C@H]12 [Compound 9, (7aR,9R,11aR)-6,9-dihydroxy-3-(4-hydroxyphenyl)-8,8,11a-trimethyl-7a,8,9,10,11,11a-hexahydro-1H,7H-pyrano[2,3-c]xanthen-1-one] |  | 3.78 |  | 26 μL/min/mg of protein | 100 | 100
10 | COCOc1ccc(-c2oc3cc(OCOC)c4c(c3c(=O)c2OCOC)O[C@]2(C)CC[C@@H](O)C(C)(C)[C@H]2C4)cc1 [Compound 10, (7aR,9R,11aR)-9-hydroxy-2,6-bis(methoxymethoxy)-3-(4-(methoxymethoxy)phenyl). 8,8,11a-trimethyl-7a,8,9,10,11,11a-hexahydro-1H,7H-pyrano[2,3-c]xanthen-1-one] |  | 4.34 |  | 52 μL/min/mg of protein | 99 | 90
11 | CC1(C)[C@H](O)CC[C@@]2(C)Oc3c(c(O)cc4oc(-c5ccc(O)cc5)c(O)c(=O)c34)C[C@H]12 [Compound 11, (7aR,9R,11aR)-2,6,9-trihydroxy-3-(4-hydroxyphenyl)-8,8,11a-trimethyl-7a,8,9,10,11,11a-hexahydro-1H,7H-pyrano[2,3-c]xanthen-1-one] |  | 2.3 | 6.3 |  |  | 
